# Results taken from US10259781B2, “Imaging agents” (THE REGENTS OF THE UNIVERSITY OF MICHIGAN, priority 2012, dated 2019).
# Tests used:
# Biodistribution in rats = format: in vivo, rat; conditions: 30 minutes after injection, n=5
# Protocol: During the development of embodiments of the technology, data were collected from bioevaluation studies of [^18F]4F-MHPG. […]
# During the development of embodiments of the technology provided herein, the biodistribution of [^18F]4F-MHPG into the organs of rats was assessed. In particular, four time points (Table 3) were collected and used to derive human radiation absorbed dose estimates using the OLINDA/EXM 1.0 software package (see, e.g., Stabin et al. (2005) “OLINDA/EXM; the second-generation personal computer software for internal dose assessment in nuclear medicine”, J Nucl Med. 46: 1023-7). […] These values were entered into the Dynamic Bladder model of OLINDA/EXM, assuming a 4.0-hour void interval. Organs with the highest absorbed dose estimates included the urinary bladder wall (0.666 rad/mCi), […] (0.221 rad/mCi), small intestine (0.201 rad/mCi), and the heart wall (0.201 rad/mCi). An ‘effective dose’ of 0.091 rem/mCi was estimated for [^18F]4F-MHPG. Under United States Federal Regulations governing research with a new radiopharmaceutical (21 CFR § 361.1), the maximum allowable radiation absorbed dose to an individual organ (other than the gonads) is 5 rad. Considering the maximum estimated absorbed dose (urinary bladder wall; 0.666 rad/mCi), initial PET studies in human subjects could use a maximum of 7.5 mCi of [^18F]4F-MHPG. This would correspond to an ‘effective dose’ of 0.68 rem.
# [1] = system: cardiac sympathetic nerve terminals; test: MicroPET imaging and myocardial kinetics (compartmental modeling, Patlak graphical analysis) in monkeys; format: in vivo, rhesus macaque monkey; conditions: indirect evidence from myocardial kinetics in monkeys
# Protocol: A series of microPET imaging studies were performed in the macaque model to assess image quality and tracer kinetics. In most of these the time course of the metabolic breakdown of [^18F]4F-MHPG in plasma was also determined. The studies are summarized below in Table 1.
# During the development of embodiments of the technology provided herein, the kinetics of [^18F]4F-MHPG in monkey hearts was assessed using either compartmental modeling or Patlak graphical analysis to obtain quantitative measures of regional cardiac sympathetic nerve density.
# For some analyses, a simplified compartmental model that assumed irreversible trapping inside nerve terminals was used to estimate the model rate constants K1 (ml/min/g), k2 (min^−1), k3 (min^−1), and a blood volume fraction BV (dimensionless) (see, e.g., FIG. 7). In both the control studies and DMI blocking studies, the model quickly converged to a single global minimum in just a few iterations of the nonlinear regression analysis (FIG. 8). […] This aggregate parameter provides a stable measure of cardiac nerve density that declined in a dose-dependent manner with increasing DMI dose (FIG. 9, “Kinetic modeling”).
# For some analyses, Patlak graphical analysis was used, which uses a mathematical transformation of the kinetic data Cp(t) and Ct(t) to generate a Tatlak plot′ having a characteristic linear phase (see, e.g., Patlak and Blasberg (1985) “Graphical evaluation of blood-to-brain transfer constants from multiple-time uptake data. Generalizations.” J Cereb Blood Flow 5: 584-90). The slope of the linear portion of a Patlak plot, Kp (ml/min/g), provides an alternate estimate of the ‘net uptake rate constant’ Ki (ml/min/g). Thus, for the model structure used (FIG. 7), the slope of the Patlak plot is given by Kp≈(K1k3)/(k2+k3).
# During the development of embodiments of the technology provided herein, the myocardial kinetics of [^18F]4F-MHPG was assessed using Patlak graphical analysis and metabolite-corrected plasma input functions. In this example, the Patlak plot is highly linear (r^2=1.00) and the estimated Patlak slope Kpatlak=0.252 ml/min/g. […] As such, regional estimates of the Patlak slope from Patlak analysis of the kinetics of [^18F]4F-MHPG serve as robust measures of regional cardiac sympathetic nerve density in patients with heart diseases.
# [2] = system: cardiac sympathetic neurons; test: Isolated working rat heart model: neuronal uptake and clearance kinetics
# Protocol: (§1) The radiotracer was infused into the heart for 10 minutes to measure the tracer uptake rate into cardiac sympathetic neurons (Kup, shown in units of ml/min/g tissue wet). Then, the heart was infused with normal heart perfusate to measure the tracer clearance rate from the heart over 2 hours.
# (§2) Experiments were conducted to test ^11C-phenoxyethylguanidine (PEG), e.g., to establish baseline values for the NET transport rate (Kup, expressed in units of mL perfusate/min/g wet) and the clearance rate from sympathetic neurons (T1/2, expressed in units of hours).
# [3] = system: cardiac sympathetic neurons (NET-mediated neuronal uptake); test: as above; conditions: isolated working rat heart (perfused, ex vivo), read-out: clearance rate from sympathetic neurons, major half-time (T1/2) (converted)
# Protocol: as §1, §2
# [4] = Metabolic breakdown in monkey plasma (reverse-phase HPLC of venous blood samples); format: in vivo, rhesus macaque monkey; conditions: monkey plasma
# Protocol: In some of the microPET studies, venous blood samples (e.g., n=6) were drawn to assess the metabolic breakdown of [^18F]4F-MHPG in plasma (see Table 1). Plasma was processed for injection onto a reverse-phase HPLC system equipped with a radiation detector. The percentages of intact parent tracer and radiolabeled metabolites were determined as a function of time. In this system, [^18F]4-MHPG has a retention time Rt of approximately 11.2 minutes while the main polar radiometabolite formed has an Rt of approximately 7.9 minutes.
smiles,measurement,setting,value
N=C(N)NCCc1ccc(F)c(O)c1 [[^11C]4F-MHPG] [^11C-4-fluoro-meta-hydroxyphenethylguanidine],"tissue concentration, adrenal medulla",Biodistribution in rats,0.56 ± 0.21 percentage of the injected dose per gram
same,"tissue concentration, blood",Biodistribution in rats,0.08 ± 0.01 percentage of the injected dose per gram
same,"tissue concentration, left ventricle",Biodistribution in rats,1.77 ± 0.27 percentage of the injected dose per gram
same,"tissue concentration, liver",Biodistribution in rats,1.22 ± 0.18 percentage of the injected dose per gram
same,"tissue concentration, lung",Biodistribution in rats,0.56 ± 0.15 percentage of the injected dose per gram
same,"tissue concentration, muscle",Biodistribution in rats,0.07 ± 0.01 percentage of the injected dose per gram
same,"tissue concentration, spleen",Biodistribution in rats,0.52 ± 0.10 percentage of the injected dose per gram
N=C(N)NCCc1ccc([18F])c(OS(=O)(=O)O)c1 [sulfur conjugate of [^18F]4-MHPG],activity at the norepinephrine transporter (NET),[1],inactive
"N=C(N)NCC1COc2ccc(O)cc2O1 (centres unmarked) [^11C-7H-GOX, ^11C-7-hydroxy-guanoxan]","retention time, compared between the two ring hydroxylated guanoxan analogs",[2],longer retention time
same,"uptake, compared between the two ring hydroxylated guanoxan analogs",[2],more rapid uptake
"N=C(N)NCCOc1ccc(F)cc1 [4F-PEG, ^11C-4-fluoro-phenoxyethylguanidine]",half-life,[3],3.5 h
same,neuronal uptake rate / NET transport rate (Kup),[2],7.25 mL/min/g wet
"N=C(N)NCCOc1ccccc1 [PEG, ^11C-phenoxyethylguanidine]",half-life,[3],5.7 h
same,neuronal uptake rate / NET transport rate (Kup),[2],5.37 mL/min/g wet
"N=[11C](N)NCCOc1ccc(O)c(F)c1 [^11C-3F-PHPEG, ^11C-3-fluoro-para-hydroxy-phenoxyethylguanidine]",neuronal uptake rate / NET transport rate (Kup),[2],4.26 mL/min/g wet
"N=C(N)NCCOc1cccc(O)c1 [MHPEG, ^11C-meta-hydroxy-phenoxyethylguanidine]",neuronal uptake rate / NET transport rate (Kup),[2],5.37 mL/min/g wet
same,vesicular trapping / retention,[2],complete trapping
"N=[11C](N)NCCOc1ccc(F)c(O)c1 [^11C-4F-MHPEG, ^11C-4-fluoro-meta-phenoxyethylguanidine]",neuronal uptake rate / NET transport rate (Kup),[2],2.66 mL/min/g wet
same,vesicular trapping / retention,[2],effectively trapped inside storage vesicles
"N=[11C](N)NCC(O)c1cccc(O)c1 (centres unmarked) [GMO, [^11C]guanyl-meta-octopamine, reference compound]",T1/2 for metabolic breakdown in plasma,[4],approximately 13 minutes
